Among the test systems are OVCAR-3 ovarian; RXF 393 renal; SK-MEL-2 melanoma; SN12C renal; SW-620 colon; TK-10 renal; U251 CNS; SR leukemia; BT-549 breast; MCF7 breast.
What all share (assay): DTP human tumour cell line panel, 48 h

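Results reflect a 48-hour exposure of cells in 96-well plates to compound at five concentrations. GI50 is the concentration that inhibits growth by half. TGI marks complete inhibition of growth.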 Bounds are passed on as bounds.

As a reminder, the TGI is the concentration giving total growth inhibition. Consider `CC(NS(=O)(=O)c1ccc([N+](=O)[O-])cc1)C(=O)O` (configuration not stated), for which the total growth inhibition concentration (TGI) with OVCAR-3 ovarian, with RXF 393 renal, with SK-MEL-2 melanoma, with SN12C renal, with SW-620 colon and in the test on TK-10 renal was above 100 µM in each case. In the test with U251 CNS, the TGI is above 100 µM.
Turning to `COc1ccccc1/C=C(\C#N)c1ccccc1`, the TGI with OVCAR-3 ovarian is 51.2 µM; in the test with RXF 393 renal it was 69.3 µM; in the test on SK-MEL-2 melanoma, 94.8 µM; in the test on SN12C renal, above 100 µM; with SR leukemia, 48.8 µM; with SW-620 colon, above 100 µM. Also, the TGI in the test on TK-10 renal was 95.6 µM; with U251 CNS it was above 100 µM.
As to `C/C(CN1C(=O)c2ccccc2C1=O)=N\NS(=O)(=O)c1ccc(C)cc1`, the TGI with OVCAR-3 ovarian, in the test on SK-MEL-2 melanoma, with SN12C renal, with SR leukemia, in the test on SW-620 colon and in the test on TK-10 renal was above 100 µM each time. For the same molecule, in the test with U251 CNS, the TGI was above 100 µM.
Broadly, the GI50 is the concentration at which growth is held to half of that of the control. Consider `COc1ccc(OC)c(/C=N/NC(=O)Cc2csc3nc(-c4ccc(Br)cc4)cn23)c1`, for which the GI50 in the test on BT-549 breast was 12.9 µM; in the test with MCF7 breast, 29.7 µM; with OVCAR-3 ovarian it was 15.9 µM; in the test with RXF 393 renal, 19 µM; in the test on SK-MEL-2 melanoma, 89.7 µM; with SN12C renal, 20.7 µM. Moreover, the GI50 with SW-620 colon was 6.44 µM; in the test on TK-10 renal, 16.3 µM; with U251 CNS it was 13.8 µM. The TGI with BT-549 breast is 33.6 µM; in the test with MCF7 breast, above 100 µM; in the test with OVCAR-3 ovarian, 59 µM; in the test on RXF 393 renal, 67.4 µM; in the test with SK-MEL-2 melanoma, above 100 µM; in the test with SN12C renal, 49.4 µM. In addition, the total growth inhibition concentration (TGI) in the test on SW-620 colon is 49.1 µM; in the test with TK-10 renal, 51.2 µM; in the test on U251 CNS it was 31.4 µM.
As to `Cc1ccc(S(=O)(=O)N2CCCN(S(=O)(=O)c3ccc(C)cc3)CCN(S(=O)(=O)c3ccc(C)cc3)CCCSCC2)cc1`, the TGI with BT-549 breast, with MCF7 breast, in the test on OVCAR-3 ovarian, in the test with RXF 393 renal, with SK-MEL-2 melanoma and in the test on SN12C renal was above 100 µM throughout. The total growth inhibition concentration (TGI) in the test on SW-620 colon and in the test on U251 CNS was above 100 µM throughout.
In the case of `Cc1ccc(S(=O)(=O)c2c(N)c3nc4ccccc4n3c3nc4ccccc4nc23)cc1`, the TGI with OVCAR-3 ovarian, with SK-MEL-2 melanoma, with SN12C renal, in the test on SR leukemia, with SW-620 colon and with U251 CNS was above 100 µM in each case.
As for `CC1CC[C@]2(C(=O)O)CCC3(COC(=O)/C=C\c4ccc(O)cc4)C(=CCC4[C@@]5(C)CC[C@H](O)C(C)(C)C5CC[C@]43C)[C@@H]2[C@H]1C` (some centres not stated), the concentration for total growth inhibition (TGI) in the test on OVCAR-3 ovarian is 37.1 µM; with RXF 393 renal, 33.9 µM; in the test on SK-MEL-2 melanoma, 51.8 µM; with SN12C renal, 54.2 µM; in the test with SR leukemia, 76.1 µM; in the test on SW-620 colon, above 100 µM. For the same molecule, the TGI is 44.7 µM in the test with TK-10 renal and 23.4 µM in the test with U251 CNS.
For `CN(C)c1ccc2c(=O)c3ccccc3oc2n1`, the concentration for total growth inhibition (TGI) in the test on OVCAR-3 ovarian, in the test on RXF 393 renal, in the test on SK-MEL-2 melanoma, with SN12C renal, with SW-620 colon and in the test with TK-10 renal was above 100 µM in each case.
`N#Cc1ccccc1NC(=O)/C(=N\N)C(C(=O)c1ccncc1)C1OC(=O)c2ccccc21` (configuration not stated): the TGI in the test on OVCAR-3 ovarian, in the test on SK-MEL-2 melanoma, with SN12C renal, in the test with SR leukemia, in the test on SW-620 colon and in the test with TK-10 renal was above 100 µM throughout. Also, in the test with U251 CNS, the TGI is above 100 µM.
As for `O=C1[C@@H]2C(c3ccccc3Br)=NO[C@@H]2C(=O)N1c1ccc(Cc2ccc(N3C(=O)[C@H]4C(c5ccccc5Br)=NO[C@H]4C3=O)cc2)cc1`, the TGI in the test with OVCAR-3 ovarian, in the test on RXF 393 renal, in the test with SK-MEL-2 melanoma, in the test with SN12C renal, with SW-620 colon and in the test on TK-10 renal was above 100 µM throughout. In the test on U251 CNS, this molecule returned a TGI above 100 µM.
`C[N+](C)(C)CC1CCCC/C1=N\OC(=O)c1ccccc1` (configuration not stated): the TGI in the test on OVCAR-3 ovarian, in the test with RXF 393 renal, with SN12C renal, with SR leukemia, with SW-620 colon and in the test on TK-10 renal was above 100 µM each time. Moreover, the TGI in the test with U251 CNS is above 100 µM.
In the case of `CCOC(=O)Nc1cc2nnc(-c3ccccc3)nc2c(N)n1`, the concentration for total growth inhibition (TGI) in the test on OVCAR-3 ovarian is 48.8 µM; with RXF 393 renal, 53.5 µM; with SK-MEL-2 melanoma it was above 100 µM; with SN12C renal, above 100 µM; with SR leukemia it was 72.2 µM; in the test with SW-620 colon it was 42.2 µM. Moreover, the total growth inhibition concentration (TGI) in the test with TK-10 renal and in the test on U251 CNS was above 100 µM each time.
As for `Cc1ccccc1NC(=O)C(=O)C(C#N)c1ccc(Cl)cc1` (configuration not stated), the total growth inhibition concentration (TGI) in the test with OVCAR-3 ovarian is above 100 µM; with RXF 393 renal, above 100 µM; in the test with SK-MEL-2 melanoma, above 100 µM; in the test with SN12C renal, above 100 µM; in the test on SW-620 colon, 31.2 µM; with TK-10 renal it was above 100 µM. For the same molecule, in the test with U251 CNS, the TGI was above 100 µM.
Regarding `CC1(C)CC(=O)C(CCC(=O)/C=C/c2ccccc2)C(=O)C1`, the TGI with BT-549 breast, in the test with MCF7 breast, in the test on OVCAR-3 ovarian, with RXF 393 renal, in the test on SK-MEL-2 melanoma and in the test with SN12C renal was above 100 µM in each case. The TGI with SW-620 colon, with TK-10 renal and in the test with U251 CNS was above 100 µM throughout.
On to `COc1cc(C2c3[nH]c4ccccc4c3C[C@H]3COC(=O)N23)cc(OC)c1OC` (some centres not stated), for which the GI50 was below 0.01 µM in the test on MCF7 breast; below 0.01 µM in the test with OVCAR-3 ovarian; below 0.01 µM in the test on SK-MEL-2 melanoma; 0.0471 µM in the test with SN12C renal; below 0.01 µM in the test with SW-620 colon; below 0.01 µM in the test with TK-10 renal. Moreover, the concentration for 50% growth inhibition (GI50) in the test with U251 CNS is below 0.01 µM. The concentration for total growth inhibition (TGI) with SK-MEL-2 melanoma, in the test on SN12C renal, in the test with SW-620 colon, with TK-10 renal and in the test with U251 CNS was above 100 µM throughout.
On to `CC1CC(C2=CC=CCS2)=Nc2ccccc2S1` (configuration not stated), for which the TGI in the test with OVCAR-3 ovarian, with RXF 393 renal, in the test with SK-MEL-2 melanoma, with SN12C renal, in the test on SW-620 colon and in the test with TK-10 renal was above 100 µM in each case. The molecule also came in with a TGI with U251 CNS above 100 µM.

The values are drawn from PubChem BioAssay (NCI).
